# Measured values: patent US8431563B2 (priority 2010, dated 2013)
# Where two headings read alike, the source gives them in different places.
# How the values were obtained:
# [1] = target: T1, interaction between glucokinase (GK) and glucokinase regulatory protein (GKRP) (Homo sapiens, UniProt Q14397); test: biochemical; assay type: binding
# T1 sequence (Q14397 1-625): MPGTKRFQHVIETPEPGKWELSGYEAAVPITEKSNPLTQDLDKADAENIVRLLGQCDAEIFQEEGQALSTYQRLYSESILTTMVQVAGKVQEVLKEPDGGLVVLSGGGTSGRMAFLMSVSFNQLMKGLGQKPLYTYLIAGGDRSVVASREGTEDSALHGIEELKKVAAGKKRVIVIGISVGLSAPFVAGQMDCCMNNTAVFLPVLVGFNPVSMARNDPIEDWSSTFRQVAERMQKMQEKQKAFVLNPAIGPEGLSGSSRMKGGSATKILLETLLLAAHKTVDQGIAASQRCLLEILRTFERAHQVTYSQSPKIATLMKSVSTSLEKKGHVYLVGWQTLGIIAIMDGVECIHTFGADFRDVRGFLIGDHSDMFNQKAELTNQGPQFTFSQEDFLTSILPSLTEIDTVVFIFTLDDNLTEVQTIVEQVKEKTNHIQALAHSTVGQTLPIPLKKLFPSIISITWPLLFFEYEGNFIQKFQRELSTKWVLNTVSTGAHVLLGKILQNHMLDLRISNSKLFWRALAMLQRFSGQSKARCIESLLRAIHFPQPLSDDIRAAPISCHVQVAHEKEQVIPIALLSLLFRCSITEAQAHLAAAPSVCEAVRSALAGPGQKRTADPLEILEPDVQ
# How it was run: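 Avi-tagged human GKRP preincubated with compound for 20 min at room temperature, then 6 nM GK-fluorescein (concentration of added solution) introduced and incubated 2 h in the dark. Buffer: 20 mM Tris pH 7.5, 0.05% BSA, 1 mM DTT, 1 μM sorbitol-6-phosphate. Plate read on a fluorescence reader.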
# [2] = target: T2, GKRP (Glucokinase Regulatory Protein) with human His-hepatic GK (Homo sapiens, UniProt Q14397); test: biochemical
# T2 sequence (Q14397 1-625): T1 sequence (Q14397 1-625)
# How it was run: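 Human His-tagged hepatic GK (30 nM in the 5× working stock) in 50 mM Tris pH 7.5, 4 mM MgCl2, 6% DMSO with DTT, BSA and Brij-35. Enzyme was added after a 30 min step and reacted 30 min at room temperature. The reaction was stopped with acetonitrile and 13C-glucose-6-phosphate formed from 13C-glucose was quantified by LC MS/MS.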
# [3] = avi-tagged GKRP, GK-fluorescein, AlphaScreen beads, read-out: GK-GKRP IC50 (Binding)
# [4] = 13C-glucose-6-phosphate formation, 280 nM GKRP (10×), 30 nM GK (5×), read-out: GK-GKRP EC50 (LC MS/MS-2)
SMILES,"IC50 [1, 3]","EC50 [2, 4]",also measured
"CC(C)N(C[C@H]1CN(S(=O)(=O)c2ccc(N)nc2)CCN1c1ncc(C(O)(C(F)(F)F)C(F)(F)F)cn1)S(C)(=O)=O [Example 232, N-(((2R)-4-((6-amino-3-pyridinyl)sulfonyl)-1-(5-(2,2,2-trifluoro-1-hydroxy-1-(trifluoromethyl)ethyl)-2-pyrimidinyl)-2-piperazinyl)methyl)-N-(1-methylethyl)methanesulfonamide]",35 nM,63 nM,–
"CC(C)CN(C[C@H]1CN(S(=O)(=O)c2ccc(N)nc2)CCN1c1ncc(C(O)(C(F)(F)F)C(F)(F)F)cn1)S(C)(=O)=O [Example 230 (6-amino-3-pyridinyl), N-(((2S)-4-((6-amino-3-pyridinyl)sulfonyl)-1-(5-(2,2,2-trifluoro-1-hydroxy-1-(trifluoromethyl)ethyl)-2-pyrimidinyl)-2-piperazinyl)methyl)-N-(2-methylpropyl)methanesulfonamide]",1 nM,11 nM,–
"CC1(C)C(=O)NCCN1C[C@H]1CN(S(=O)(=O)c2cccs2)CCN1c1ccc(C(C)(O)C(F)(F)F)cc1 (single isomer, unassigned) [Example 180 Peak #2]",8 nM,42 nM,–
"CC(O)(c1ccc(N2CCN(S(=O)(=O)c3cccs3)C[C@@H]2CN2CC3CCOC3C2)cc1)C(F)(F)F (stereo partly drawn) [Example 122, 1,1,1-trifluoro-2-(4-((2S)-2-(cis-hexahydro-5H-furo[2,3-c]pyrrol-5-ylmethyl)-4-(2-thiophenylsulfonyl)-1-piperazinyl)phenyl)-2-propanol]",–,–,IC50 ([1]; GK-GKRP IC50 (Binding)): 555 nM; EC50 ([2]; GK-GKRP EC50 (LC MS/MS-2)): 313 nM
"CC(C)CN(C[C@H]1CN(S(=O)(=O)c2cccs2)CCN1c1ccc(C(C)(O)C(F)(F)F)cc1)S(=O)(=O)CC(F)(F)F (mixture of isomers) [Example 214, 2,2,2-trifluoro-N-(2-methylpropyl)-N-(((2S)-4-(2-thiophenylsulfonyl)-1-(4-(2,2,2-trifluoro-1-hydroxy-1-methylethyl)phenyl)-2-piperazinyl)methyl) ethanesulfonamide]",238 nM,247 nM,–
"CC(O)(c1ccc(N2CCN(S(=O)(=O)c3ccc(N)s3)C[C@@H]2Cc2ccccc2)cc1)C(F)(F)F (mixture of isomers) [Example 136, 2-(4-((2S)-4-((5-amino-2-thiophenyl)sulfonyl)-2-benzyl-1-piperazinyl)phenyl)-1,1,1-trifluoro-2-propanol]",250 nM,146 nM,–
"CC(O)(c1ccc(N2CCN(S(=O)(=O)c3cccs3)C[C@@H]2CSc2ccccc2F)cc1)C(F)(F)F (mixture of isomers) [Example 219, 1,1,1-trifluoro-2-(4-((2R)-2-(((2-fluorophenyl)sulfanyl)methyl)-4-(2-thiophenylsulfonyl)-1-piperazinyl)phenyl)-2-propanol]",14 nM,25 nM,–
"CC(O)(c1ccc(N2CCN(S(=O)(=O)c3cccs3)C[C@@H]2CN2CCOCC2CNS(C)(=O)=O)cc1)C(F)(F)F (single isomer, unassigned) [Example 112 Peak #1]",–,–,IC50 ([1]; read-out: GK-GKRP IC50 (Binding)): 275 nM; EC50 ([2]; read-out: GK-GKRP EC50 (LC MS/MS-2)): 986 nM
"CC(O)(c1ccc(N2CCN(S(=O)(=O)c3cccs3)C[C@@H]2CNS(=O)(=O)c2cccnc2)cc1)C(F)(F)F (mixture of isomers) [Example 192, N-(((2S)-4-(2-thiophenylsulfonyl)-1-(4-(2,2,2-trifluoro-1-hydroxy-1-methylethyl)phenyl)-2-piperazinyl)methyl)-3-pyridinesulfonamide]",103 nM,126 nM,–
"O=S(=O)(c1cccs1)N1CCN(c2ccc(C(O)(C(F)(F)F)C(F)(F)F)cc2C#CCO)CC1 [Example 152, 3-(2-(4-(2-thiophenylsulfonyl)-1-piperazinyl)-5-(2,2,2-trifluoro-1-hydroxy-1-(trifluoromethyl)ethyl)phenyl)-2-propyn-1-ol]",712 nM,557 nM,–
"C[C@H]1CN(S(=O)(=O)c2ccc(N)s2)CCN1c1ncc(C(O)(C(F)(F)F)C(F)(F)F)cn1 [Example 89, 2-(2-((2S)-4-((5-amino-2-thiophenyl)sulfonyl)-2-methyl-1-piperazinyl)-5-pyrimidinyl)-1,1,1,3,3,3-hexafluoro-2-propanol]",252 nM,161 nM,–
"CC(O)(c1ccc(N2CCN(S(=O)(=O)c3cccs3)C[C@@H]2CS(=O)(=O)c2ccccc2)cc1)C(F)(F)F (single isomer, unassigned) [Example 187 Peak#2]",59 nM,52 nM,–
"C[C@@H](C[C@H]1CN(S(=O)(=O)c2cccs2)CCN1c1ccc([C@](C)(O)C(F)(F)F)cc1)NC1COC1 (racemic) [Example 148, 1,1,1-trifluoro-2-(4-((2S)-2-(2-(3-oxetanylamino)propyl)-4-(2-thiophenylsulfonyl)-1-piperazinyl)phenyl)-2-propanol]",–,–,IC50 ([1]; GK-GKRP IC50 (Binding)): 1120 nM; EC50 ([2]; GK-GKRP EC50 (LC MS/MS-2)): 529 nM
"CC(C)N(C[C@H]1CN(S(=O)(=O)c2cccs2)CCN1c1ccc(C(C)(O)C(F)(F)F)cc1)S(=O)(=O)c1cccnc1 (mixture of isomers) [Example 198, N-(1-methylethyl)-N-(((2R)-4-(2-thiophenylsulfonyl)-1-(4-(2,2,2-trifluoro-1-hydroxy-1-methylethyl)phenyl)-2-piperazinyl)methyl)-3-pyridinesulfonamide]",108 nM,177 nM,–
"C[C@H]1COCCN1C[C@H]1CN(S(=O)(=O)c2cccs2)CCN1c1ccc(C(O)(CO)C(F)(F)F)cc1 (single isomer, unassigned) [Example 83 Peak #1]",32 nM,68 nM,–
"CC(O)(c1ccc(N2CCN(S(=O)(=O)c3cccs3)C[C@@H]2CN2[C@@H]3COC[C@H]2CC(=O)C3)cc1)C(F)(F)F (single isomer, unassigned) [Example 106 Peak#2]",61 nM,142 nM,–
"C[C@H]1COCCN1C[C@H]1CN(S(=O)(=O)c2ccc(N)nc2)CCN1c1ccc([C@@](C)(O)C(F)(F)F)cc1 (single isomer, unassigned) [Example 125 Peak #1]",4 nM,26 nM,–
"CC1(CN(C[C@H]2CN(S(=O)(=O)c3cccs3)CCN2c2ccc(C(C)(O)C(F)(F)F)cc2)S(C)(=O)=O)COC1 (mixture of isomers) [Example 216, N-((3-methyl-3-oxetanyl)methyl)-N-(((2S)-4-(2-thiophenylsulfonyl)-1-(4-(2,2,2-trifluoro-1-hydroxy-1-methylethyl)phenyl)-2-piperazinyl)methyl)methanesulfonamide]",172 nM,194 nM,–
"C[C@H]1COCCN1C[C@H]1CN(S(=O)(=O)c2ccc(N)nc2)CCN1c1ncc(C(C)(O)C(F)(F)F)cn1 (mixture of isomers) [Example 129, 2-(2-((2S)-4-((6-amino-3-pyridinyl)sulfonyl)-2-(((3S)-3-methyl-4-morpholinyl)methyl)-1-piperazinyl)-5-pyrimidinyl)-1,1,1-trifluoro-2-propanol]",36 nM,99 nM,–
"CCC(C#Cc1cc(C(O)(C(F)(F)F)C(F)(F)F)ccc1N1CCN(S(=O)(=O)c2cccs2)CC1)OC (racemic) [Example 155, 1,1,1,3,3,3-hexafluoro-2-(3-(3-methoxy-1-pentyn-1-yl)-4-(4-(2-thiophenylsulfonyl)-1-piperazinyl)phenyl)-2-propanol]",145 nM,112 nM,–
